Entries after “also recorded” stand apart in the source; their conditions may differ. Where two headings read alike, the source gives them in different places.
Legend:
[1] = system: E-cadherin/catenin complex; assay type: cell-based, canine
[2] = system: bovine brain microvessel endothelial cells (BBECs); assay type: cell-based
BBECs [3] = assay type: cell-based, bovine
[4] = system: ZO-1 and associated proteins; assay type: cell-based, canine
MDCK strain I cells [5] = experiment: Transcellular electrical resistance (TER) of filter-grown MDCK strain I cells; assay type: cell-based, canine
MDCK strain I cells [6] = assay type: cell-based, canine
MDCK cells [7] = assay type: cell-based, canine
[8] = system: brain tissue from normal adult rat; experiment: Phosphotyrosine (4G10) label of blood vessels in rat brain tissue exposed to pervanadate; details: rat brain tissue exposed to pervanadate (FIG. 10F)
Protocol: In these experiments, brain sections were labelled with an antibody to phosphotyrosine (monoclonal antibody 4G10) and labelled with a polyclonal antibody to collagen type IV to outline blood vessels. In sham operated animals, 4G10 label was restricted to a few large, peripherally located, vessels with a pattern of staining consistent with tyrosine phosphorylation of proteins at the borders of cells lining the vessels. After 24 hours of MCA occlusion an increase in 4G10 label was seen associated with microvessels located at the edge of the severely damaged tissue (see FIG. 10). The increase in 4G10 label was restricted to vessels in the area of the lesion, but not every vessel was labelled. 4G10 distribution in the microvessels is similar to that seen when brain tissue from normal adult rat is exposed to pervanadate, a drug that elevates levels of phosphotyrosine by inhibiting the enzymes responsible for tyrosine dephosphorylation.
Sections were air-dried and permeablised with 95% ethanol at −95° C. for 30 minutes followed by acetone at room temperature for 1 minute. All of the antibody incubations and washes used PBS containing 5×10^−4 M sodium vanadate. […]

MDCK strain I cells [9] = assay type: cell-based, canine; remark: listed apart in the source
BBECs [10] = assay type: cell-based, bovine; remark: listed apart in the source
MDCK cells [11] = details: Volberg et al. 1992; cited from earlier work
[12] = system: pp60^v−src transfected rat 3Y1 cells; details: pp60v-src transfected rat 3Y1 fibroblast cell line; Matsuyoshi et al. 1992; cited from earlier work
[13] = system: bovine brain microvessel endothelial cells (BBECs); details: BBECs as well as endothelial cells derived from human brain; previously shown (Rubin et al. 1991); cited from earlier work

pervanadate
tyrosine phosphorylation of proteins in anti-E-cadherin immunoprecipitates [1]: stimulates the tyrosine phosphorylation of several catenins as well as E-cadherin; also recorded: caused an increase in the tyrosine phosphorylation of several proteins
tyrosine phosphorylation of α-catenin in α-catenin immunoprecipitates [1]: could not be detected
β-catenin content of phosphotyrosine immunoprecipitates [1]: is increased; also recorded: rapidly increased
change in TER [2]: caused a dose-dependent and rapid decrease in TER
tyrosine phosphorylation of proteins in whole cell lysates (BBECs [3]): caused an increase in the tyrosine phosphorylation of many proteins
tyrosine phosphorylation of ZO-1 [4]: also stimulated tyrosine phosphorylation of ZO-1; also recorded: clearly resulted in the tyrosine phosphorylation
tyrosine phosphorylation of ZO-2 [4]: clearly resulted in the tyrosine phosphorylation
change in TER (MDCK strain I cells [5]): elicited a decrease in TER
reversibility of the induced decrease in TER by reducing agent if added early enough (MDCK strain I cells [5]): partially reversed
anti-phosphotyrosine staining pattern (MDCK strain I cells [6]): initially caused an increase in staining at the adherens junction at the intercellular borders
paracellular flux of sucrose (MDCK cells [7]): increase the paracellular flux of sucrose
phosphotyrosine label of blood vessels [8]: induces detectable levels of phosphotyrosine in both large and small vessels; also recorded: induces increased phosphotyrosine in both small and large blood vessels
tyrosine phosphorylation of proteins in whole cell lysates (MDCK strain I cells [9]): caused an increase in the tyrosine phosphorylation of many proteins
anti-phosphotyrosine staining pattern (BBECs [10]): initially caused an increase in staining at the adherens junction at the intercellular borders
effect on the tight junction, by immunostaining of ZO-1 (MDCK cells [11]): had no effect on the tight junction
tyrosine phosphorylation of proteins at the adherens junction (MDCK cells [11]): elicited tyrosine phosphorylation of proteins at the adherens junction

[O]=[V]([O-])([O-])[O-] [vanadate]
change in TER after addition of H2O2 to vanadate pretreated cells (MDCK strain I cells [5]): caused a rapid decrease in TER
change in TER over a longer time period, vanadate alone (MDCK strain I cells [5]): caused a decrease in TER
change in TER, vanadate alone (MDCK strain I cells [5]): did not cause a decrease in TER
tyrosine phosphorylation of cadherin and β-catenin [12]: induced the tyrosine phosphorylation of E- or P-cadherin and β-catenin

OCC(S)CS (centres unmarked) [2,3-dimercaptopropanol]
reversal of PAO-stimulated catenin tyrosine phosphorylation [1]: is reversed; also recorded: reversed catenin tyrosine phosphorylation
block of PAO-induced decrease in TER by reducing agent (MDCK strain I cells [5]; MDCK cells preincubated 10 minutes with 200 μM β-mercaptoethanol or 100 μM 2,3-dimercaptopropanol, 10 μM PAO, TER 30 minutes later (FIG. 2b)): blocked
block of BAPTA-elicited decrease in TER (MDCK strain I cells [5]; MDCK cells, 100 μM 2,3-dimercaptopropanol preincubation, 3 mM BAPTA (FIG. 2b)): did not block

OCCS [β-mercapto-ethanol, β-mercaptoethanol]
block of PAO-induced decrease in TER by reducing agent (MDCK strain I cells [5]): not

CO[C@H]1[C@@H](OC)C[C@H](C)[C@@H](OC)C2=CC(=O)C=C(NC(=O)/C(C)=C/C=C\[C@H](OC)[C@@H](OC(N)=O)/C(C)=C/[C@@H]1C)C2=O [herbimycin A]
effect of herbimycin A alone on resistance (MDCK strain I cells [5]): did not affect resistance
effect of herbimycin A pretreatment on PAO-induced decrease in transcellular electrical resistance (MDCK strain I cells [5]): attenuated the decrease in transcellular electrical resistance
effect of herbimycin A on PAO-induced increase in protein tyrosine phosphorylation (MDCK strain I cells [9]): attenuated the ability of PAO to increase protein tyrosine phosphorylation

Nc1ncnc2c1ncn2[C@@H]1O[C@@H]2COP(=O)(O)O[C@H]2[C@H]1O [cyclic AMP]
effect of cyclic AMP on TER [13]: increases TER

O=C(O)CN(CC(=O)O)c1ccccc1OCCOc1ccccc1N(CC(=O)O)CC(=O)O [BAPTA, bis- (O-aminophenoxy)-ethane-N,N,N′,N′-tetraacetic acid]
change in TER (MDCK strain I cells [5]; MDCK strain I cells, preformed pervanadate 0.01-0.1 mM (FIG. 1b), PAO 1-30 μM (FIG. 2a), BAPTA 2.5-3 mM): decrease in TER

— patent US20020032151A1, “Modulating the permeability of a physiological barrier with an agent that modulates tyrosine phosphorylation” (priority 1993, published 2002)
